# Measurements reported in ChEMBL document CHEMBL1151572, “Non-glycosidic/non-aminoalkyl-substituted indolocarbazoles as inhibitors of protein kinase C” (Bioorg Med Chem Lett, 1993).
# Columns and labels:
# Protein kinase C (PKC) = test: In vitro for inhibitory activity against protein kinase C from rat brain
# [1] = biological target: Myosin light chain kinase, smooth muscle (Gallus gallus, UniProt P11799); test: In vitro for inhibitory activity against myosin light-chain kinase from chicken gizzard (M-kinase)
# [2] = biological target: T1, cGMP-dependent protein kinase 1 (Bos taurus, UniProt P00516); test: In vitro for inhibitory activity against cGMP-dependent protein kinase from bovine lung (G-kinase)
# T1 sequence (P00516 whole entry): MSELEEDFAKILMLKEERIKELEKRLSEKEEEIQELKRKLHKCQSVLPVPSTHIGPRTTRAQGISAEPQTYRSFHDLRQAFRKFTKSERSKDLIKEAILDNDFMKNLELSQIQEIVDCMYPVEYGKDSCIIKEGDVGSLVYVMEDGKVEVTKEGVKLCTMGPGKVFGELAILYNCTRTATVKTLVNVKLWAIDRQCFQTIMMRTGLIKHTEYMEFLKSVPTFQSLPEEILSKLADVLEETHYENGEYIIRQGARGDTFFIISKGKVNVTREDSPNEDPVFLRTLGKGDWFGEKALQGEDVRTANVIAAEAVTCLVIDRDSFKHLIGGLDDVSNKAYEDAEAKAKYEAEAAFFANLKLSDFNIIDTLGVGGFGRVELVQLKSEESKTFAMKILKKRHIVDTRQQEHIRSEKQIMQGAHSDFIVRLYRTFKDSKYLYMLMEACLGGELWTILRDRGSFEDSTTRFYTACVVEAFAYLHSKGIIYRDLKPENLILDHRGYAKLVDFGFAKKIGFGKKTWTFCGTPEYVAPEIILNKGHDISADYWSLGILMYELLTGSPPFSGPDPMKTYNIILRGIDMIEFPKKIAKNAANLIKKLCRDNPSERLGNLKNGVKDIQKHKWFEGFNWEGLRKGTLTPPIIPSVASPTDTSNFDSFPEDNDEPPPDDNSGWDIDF
# [3] = biological target: cAMP-dependent protein kinase catalytic subunit alpha (Bos taurus, UniProt P00517); test: In vitro for inhibitory activity against cAMP-dependent protein kinase from bovine heart (A-kinase)
# Splenocyte = test: In vitro for inhibitory activity against tyrosine specific protein kinase from murine spleen cells (T-kinase); type: functional, cell-based; details: Mus musculus
# Sequence of Myosin light chain kinase, smooth muscle (P11799 whole entry): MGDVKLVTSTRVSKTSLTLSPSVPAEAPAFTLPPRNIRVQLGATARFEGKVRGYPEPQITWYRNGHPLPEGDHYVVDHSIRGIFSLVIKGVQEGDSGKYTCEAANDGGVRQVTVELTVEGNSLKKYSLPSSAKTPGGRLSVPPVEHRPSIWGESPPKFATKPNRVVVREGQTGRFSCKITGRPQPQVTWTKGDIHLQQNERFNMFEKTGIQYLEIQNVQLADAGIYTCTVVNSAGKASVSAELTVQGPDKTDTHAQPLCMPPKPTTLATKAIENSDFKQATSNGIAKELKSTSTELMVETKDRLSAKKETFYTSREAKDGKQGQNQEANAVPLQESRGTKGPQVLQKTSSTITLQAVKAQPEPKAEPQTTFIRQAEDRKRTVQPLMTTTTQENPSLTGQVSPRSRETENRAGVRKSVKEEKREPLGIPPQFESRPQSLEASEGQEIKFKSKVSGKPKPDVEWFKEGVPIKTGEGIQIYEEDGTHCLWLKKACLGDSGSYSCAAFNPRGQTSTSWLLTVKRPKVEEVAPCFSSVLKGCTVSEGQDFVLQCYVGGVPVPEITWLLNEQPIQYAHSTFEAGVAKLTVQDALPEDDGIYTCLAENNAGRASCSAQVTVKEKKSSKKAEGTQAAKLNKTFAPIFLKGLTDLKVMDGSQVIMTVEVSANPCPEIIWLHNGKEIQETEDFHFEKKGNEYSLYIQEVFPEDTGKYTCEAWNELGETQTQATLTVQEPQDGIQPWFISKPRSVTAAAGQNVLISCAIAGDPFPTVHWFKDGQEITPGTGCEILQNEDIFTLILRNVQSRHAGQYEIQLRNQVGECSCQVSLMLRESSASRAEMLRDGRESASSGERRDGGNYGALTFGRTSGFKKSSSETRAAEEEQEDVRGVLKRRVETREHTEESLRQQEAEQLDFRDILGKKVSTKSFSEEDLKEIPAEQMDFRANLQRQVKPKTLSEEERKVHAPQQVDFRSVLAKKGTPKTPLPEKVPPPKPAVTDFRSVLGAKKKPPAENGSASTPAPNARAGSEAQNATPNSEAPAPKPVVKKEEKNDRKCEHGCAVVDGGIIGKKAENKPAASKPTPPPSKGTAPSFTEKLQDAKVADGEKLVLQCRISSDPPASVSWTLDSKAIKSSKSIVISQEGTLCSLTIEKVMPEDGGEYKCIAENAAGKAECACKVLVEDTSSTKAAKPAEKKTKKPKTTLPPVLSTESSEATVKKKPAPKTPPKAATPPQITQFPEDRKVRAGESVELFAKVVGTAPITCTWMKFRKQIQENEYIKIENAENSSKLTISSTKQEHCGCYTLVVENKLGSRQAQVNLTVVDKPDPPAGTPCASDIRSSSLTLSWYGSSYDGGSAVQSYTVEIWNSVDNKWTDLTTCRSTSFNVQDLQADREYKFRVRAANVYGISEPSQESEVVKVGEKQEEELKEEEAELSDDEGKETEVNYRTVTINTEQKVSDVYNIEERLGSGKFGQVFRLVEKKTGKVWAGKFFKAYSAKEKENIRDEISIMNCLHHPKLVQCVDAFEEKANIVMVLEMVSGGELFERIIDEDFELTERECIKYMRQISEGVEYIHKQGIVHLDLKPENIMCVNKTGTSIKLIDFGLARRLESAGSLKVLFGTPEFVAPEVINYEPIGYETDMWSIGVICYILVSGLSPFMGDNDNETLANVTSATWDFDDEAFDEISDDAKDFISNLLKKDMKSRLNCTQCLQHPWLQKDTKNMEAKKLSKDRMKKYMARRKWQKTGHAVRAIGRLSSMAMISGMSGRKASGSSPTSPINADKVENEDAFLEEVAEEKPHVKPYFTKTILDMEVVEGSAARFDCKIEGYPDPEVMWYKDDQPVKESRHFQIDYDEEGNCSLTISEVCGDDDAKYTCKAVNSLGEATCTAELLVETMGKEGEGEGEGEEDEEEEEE
smiles,measurement,setting,value
NC(=O)CCn1c2ccccc2c2c3c(c4c5ccccc5[nH]c4c21)C(=O)NC3,IC50,Protein kinase C (PKC),110 nM
same,IC50,[1],82 nM
O=C1NCc2c1c1c3ccccc3[nH]c1c1c2c2ccccc2n1CC(O)CO (configuration not stated),IC50,Protein kinase C (PKC),99 nM
same,IC50,[1],390 nM
same,IC50,[2],280 nM
same,IC50,[3],4800 nM
CCn1c2ccccc2c2c3c(c4c5ccccc5n(CC)c4c21)C(=O)NC3,IC50,Protein kinase C (PKC),200 nM
same,IC50,[1],1200 nM
same,IC50,[2],700 nM
same,IC50,[3],> 10000 nM
N#CCCn1c2ccccc2c2c3c(c4c5ccccc5[nH]c4c21)C(=O)NC3,IC50,Protein kinase C (PKC),75 nM
same,IC50,[1],500 nM
same,IC50,[2],320 nM
same,IC50,[3],> 10000 nM
CCCn1c2ccccc2c2c3c(c4c5ccccc5n(CCC)c4c21)C(=O)NC3,IC50,Protein kinase C (PKC),8100 nM
Cn1c2ccccc2c2c3c(c4c5ccccc5n(CCC#N)c4c21)CNC3=O [GO-6976],IC50,Splenocyte,> 10000 nM
same,IC50,[3],> 100000 nM
Cn1c2ccccc2c2c3c(c4c5ccccc5n(C)c4c21)C(=O)NC3,IC50,Protein kinase C (PKC),450 nM
same,IC50,[1],5800 nM
same,IC50,[2],5500 nM
same,IC50,[3],> 100000 nM
Cn1c2ccccc2c2c3c(c4c5ccccc5n(CC(F)F)c4c21)CNC3=O,IC50,Splenocyte,> 10000 nM
same,IC50,Protein kinase C (PKC),32 nM
same,IC50,[1],440 nM
same,IC50,[2],710 nM
same,IC50,[3],2400 nM
CCn1c2ccccc2c2c3c(c4c5ccccc5n(CCC#N)c4c21)CNC3=O,IC50,Splenocyte,> 10000 nM
same,IC50,Protein kinase C (PKC),27 nM
same,IC50,[1],1600 nM
same,IC50,[2],1300 nM
same,IC50,[3],6300 nM
CN[C@@H]1C[C@H]2O[C@@](C)([C@@H]1OC)n1c3ccccc3c3c4c(c5c6ccccc6n2c5c31)C(=O)NC4 [STAUROSPORINE],IC50,Splenocyte,400 nM
O=C1NCc2c1c1c3ccccc3[nH]c1c1[nH]c3ccccc3c21 [STAUROSPORINONE],IC50,Protein kinase C (PKC),680 nM
same,IC50,[1],2800 nM
same,IC50,[2],650 nM
same,IC50,[3],> 10000 nM
Cn1c2ccccc2c2c3c(c4c5ccccc5n(CCCN=[N+]=[N-])c4c21)CNC3=O,IC50,Protein kinase C (PKC),25 nM
same,IC50,[1],450 nM
O=C(O)CCn1c2ccccc2c2c3c(c4c5ccccc5[nH]c4c21)C(=O)NC3,IC50,Protein kinase C (PKC),590 nM
same,IC50,[1],1800 nM
same,IC50,[2],21000 nM
same,IC50,[3],> 100000 nM
CCCn1c2ccccc2c2c3c(c4c5ccccc5n(C)c4c21)C(=O)NC3,IC50,Splenocyte,> 10000 nM
same,IC50,Protein kinase C (PKC),100 nM
same,IC50,[1],11000 nM
same,IC50,[2],5100 nM
same,IC50,[3],> 30000 nM
CC(C)=CCn1c2ccccc2c2c3c(c4c5ccccc5[nH]c4c21)C(=O)NC3,IC50,Protein kinase C (PKC),3500 nM
Cn1c2ccccc2c2c3c(c4c5ccccc5[nH]c4c21)C(=O)NC3,IC50,Protein kinase C (PKC),520 nM
same,IC50,[1],1100 nM
same,IC50,[2],400 nM
same,IC50,[3],> 10000 nM
CN1Cc2c(c3c4ccccc4n(C)c3c3c2c2ccccc2n3CCC#N)C1=O,IC50,Splenocyte,> 10000 nM
same,IC50,Protein kinase C (PKC),> 30000 nM
same,IC50,[1],> 10000 nM
same,IC50,[2],> 30000 nM
same,IC50,[3],> 30000 nM
